Data: patent US20040115483A1, “Crystal modification of a cyclic depsipeptide having improved strength” (priority 2001, published 2004)

Key:
[1] = tested on: Haemonchus Contortus; test: Egg reduction test (eggs per gram of faeces) in experimentally infected sheep; assay type: in vivo; conditions: oral (gelatin capsule), 1 sheep, EPG
Method: Effectiveness of Forms I-IV of the Depsipeptide of the Formula (I) at Different Oral Dosages Against Haemonchus Contortus in Sheep
Sheep (Merino or Blackhead breed, 25-35 kg of body weight) were experimentally infected with 5000H contortus L3 larvae and treated with the formulated test substance at the end of the prepatency time of the parasite. The test compounds were administered orally (gelatin capsule). The anthelmintic effectiveness of the test substances was measured as a function of reduction of the number of eggs per gram of faeces. To this end, fresh faeces from the test animals were processed according to the McMaster method, modified according to Wetzel, and the number of eggs was determined. The number of eggs was determined at regular intervals before and after the treatment. The anthelmintic effectiveness was defined as follows: 3=>95%, 2=75-95%, 1=50-75% and 0=<50% reduction in eggs (cf. also G. von Samson-Himmelstjerna, A. Harder, T. Schnieder, J. Kalbe, N. Mencke (2000) In vivo activities of the new anthelmintic depsipeptide PF1022A. Parasitol. Res. 86:194-199).

[2] = Bioavailability of the crystal forms; assay type: in vivo; conditions: comparison of forms I-IV
[3] = tested on: Cooperia Oncophora; test: Slaughter test (reduction of number of worms in small intestine) in experimentally infected cattle; assay type: in vivo; conditions: oral, 3 cattle, slaughter 10 days after treatment
Method: Effectiveness of Forms I and IV of the Depsipeptide of the Formula (I) at Different Oral Dosages Against Cooperia Oncophora in Cattle
Cattle (breed: Hostein Friesean, species: Bos taurus, calves or young cattle of up to about 200 kg) were experimentally infected with 15,000 C. oncophora L3 larvae. After successful infection (prepatency time about 18-21 days) the number of eggs per gram of faeces was determined 3 times within one week. The animals were then (at day 0=day of the treatment) treated orally (gelatin capsule) or subcutaneously with the formulated test substance. The anthelmintic effectiveness of the test substances was determined as a function of the reduction of the number of worms (in % of the untreated control) in the small intestine after the animals had been slaughtered (10 days after the treatment) (cf. also G. von Samson-Himmelstjerna, A. Harder, T. Schnieder, J. Kalbe, N. Mencke (2000) In vivo activities of the new anthelmintic depsipeptide PF1022A. Parasitol. Res. 86: 194-199.).
The effectiveness in the slaughter experiment is stated in % reduction in worms, compared to the untreated control.

[4] = Thermodynamic stability of the crystal forms; assay type: physicochemical; conditions: comparison of forms I-IV

For `CC(C)C[C@H]1C(=O)O[C@H](Cc2ccc(N3CCOCC3)cc2)C(=O)N(C)[C@@H](CC(C)C)C(=O)O[C@H](C)C(=O)N(C)[C@@H](CC(C)C)C(=O)O[C@H](Cc2ccc(N3CCOCC3)cc2)C(=O)N(C)[C@@H](CC(C)C)C(=O)O[C@H](C)C(=O)N1C` [Form III], the “Effectiveness (reduction of eggs per gram of faeces)” value ([1]; dosage 0.1 mg/kg, listed as III) was 1 (1 Sheep, EPG) (1 = effectiveness 50% to 75%) and the “Effectiveness (reduction of eggs per gram of faeces)” value ([1]; dosage 0.5 mg/kg, listed as III) was 1 (1 Sheep, EPG) (1 = effectiveness 50% to 75%).

For `CC(C)C[C@H]1C(=O)O[C@H](Cc2ccc(N3CCOCC3)cc2)C(=O)N(C)[C@@H](CC(C)C)C(=O)O[C@H](C)C(=O)N(C)[C@@H](CC(C)C)C(=O)O[C@H](Cc2ccc(N3CCOCC3)cc2)C(=O)N(C)[C@@H](CC(C)C)C(=O)O[C@H](C)C(=O)N1C` [Form II], the “Effectiveness (reduction of eggs per gram of faeces)” value ([1]; dosage 0.1 mg/kg, listed as II) was 0 (1 Sheep, EPG) (0 = effectiveness ≦ 50 %) and the “Effectiveness (reduction of eggs per gram of faeces)” value ([1]; dosage 0.5 mg/kg, listed as II) was 0 (1 Sheep, EPG) (0 = effectiveness ≦ 50 %).

With `CC(C)C[C@H]1C(=O)O[C@H](Cc2ccc(N3CCOCC3)cc2)C(=O)N(C)[C@@H](CC(C)C)C(=O)O[C@H](C)C(=O)N(C)[C@@H](CC(C)C)C(=O)O[C@H](Cc2ccc(N3CCOCC3)cc2)C(=O)N(C)[C@@H](CC(C)C)C(=O)O[C@H](C)C(=O)N1C` [Form I] the “Bioavailability (rank among the forms)” value [2] was “greatest bioavailability”, the “Effectiveness (reduction of eggs per gram of faeces)” value ([1]; dosage 0.1 mg/kg, listed as I) was 3 (1 Sheep, EPG) (3 = effectiveness > 95%) and the “Effectiveness (reduction of eggs per gram of faeces)” value ([1]; dosage 0.5 mg/kg, listed as I) was 3 (1 Sheep, EPG) (3 = effectiveness > 95%). For the same compound, the “Effectiveness (% reduction in worms, compared to the untreated control)” value ([3]; dosage 1.0 mg/kg, listed as I) was 93.81% (3 cattle, slaughter test) and the “Thermodynamic stability (rank among the four forms)” value ([4]; listed as form I) was “thermodynamically most stable form”.

For `CC(C)C[C@H]1C(=O)O[C@H](Cc2ccc(N3CCOCC3)cc2)C(=O)N(C)[C@@H](CC(C)C)C(=O)O[C@H](C)C(=O)N(C)[C@@H](CC(C)C)C(=O)O[C@H](Cc2ccc(N3CCOCC3)cc2)C(=O)N(C)[C@@H](CC(C)C)C(=O)O[C@H](C)C(=O)N1C` [Form IV], the “Effectiveness (reduction of eggs per gram of faeces)” value ([1]; dosage 0.1 mg/kg, listed as IV) was 0 (1 Sheep, EPG) (0 = effectiveness ≦ 50 %), the “Effectiveness (reduction of eggs per gram of faeces)” value ([1]; dosage 0.5 mg/kg, listed as IV) was 0 (1 Sheep, EPG) (0 = effectiveness ≦ 50 %) and the “Effectiveness (reduction of eggs per gram of faeces)” value ([1]; dosage 1.0 mg/kg) was 3 (1 Sheep, EPG) (3 = effectiveness > 95%). For the same compound, the “Effectiveness (% reduction in worms, compared to the untreated control)” value ([3]; dosage 1.0 mg/kg, listed as IV) was 43.09% (3 cattle, slaughter test), the “Effectiveness (% reduction in worms, compared to the untreated control)” value ([3]; dosage 2.0 mg/kg) was 99.15% (3 cattle, slaughter test) and the “Thermodynamic stability (rank among the four forms)” value ([4]; listed as form IV) was “thermodynamically fourth most stable form”.
